US8299113B2, “Bicyclic tetrahydropyrrole compounds” (Laboratorios del Dr. Esteve, S.A., priority 2006, dated 2012)

Experiments:
sigma (σ-2) site = sigma (σ-2) site (Homo sapiens, UniProt Q5BJF2); details: background, in words; cited from earlier work
sigma 1 (σ-1) site = sigma 1 (σ-1) site (Homo sapiens, UniProt Q99720); details: background, in words; cited from earlier work
σ1-receptor = target: T1, σ1-receptor (Cavia porcellus, UniProt Q60492); test: Sigma-1 receptor radioligand binding, [3H](+)-pentazocine, brain membranes; details: [3H](+)-pentazocine 0.5 nM, guinea pig brain membranes; for % Binding σ1 10^−7M: compound concentration 10^−7 M; for % Binding σ1 10^−8M: compound concentration 10^−8 M
T1 construct: guinea pig brains are homogenized; from tissue; host or cells: guinea pig brain membranes
Method: Brain membrane preparation and binding assays for the σ1-receptor are performed as described (DeHaven-Hudkins et al., 1992) with some modifications. In brief, guinea pig brains are homogenized in 10 vols. (w/v) of Tris-HCl 50 mM 0.32 M sucrose, pH 7.4 is centrifuged at 1000 g for 10 min at 4° C. and the supernatants collected and centrifuged again at 48000 g for 15 min at 4° C. The pellet is resuspended in 10 volumes of Tris-HCl buffer (50 mM, pH 7.4), incubated at 37° C. for 30 min, and centrifuged at 48000 g for 20 min at 4° C. Following this, the pellet is resuspended in fresh Tris-HCl buffer (50 mM, pH 7.4) and stored on ice until use.
Each assay tube contain 10 μL of [^3H](+)-pentazocine (final concentration of 0.5 nM), 900 μL of the tissue suspension to a final assay volume of 1 mL and a final tissue concentration of approximately 30 mg tissue net weight/mL. […] All tubes are incubated at 37° C. for 150 min before termination of the reaction by rapid filtration over Schleicher & Schuell GF 3362 glass fibre filters [previously soaked in a solution of 0.5% polyethylenimine for at least 1 h]. Filters are then washed four times with 4 mL of cold Tris-HCl buffer (50 mM, pH 7.4). Following addition of scintillation cocktail, the samples are allowed to equilibrate overnight. The amount of bound radioactivity is determined by liquid scintillation spectrometry using a Wallac Winspectral 1414 liquid scintillation counter. Protein concentrations are determined by the method of Lowry et al. (1951).

T1 sequence (Q60492 whole entry): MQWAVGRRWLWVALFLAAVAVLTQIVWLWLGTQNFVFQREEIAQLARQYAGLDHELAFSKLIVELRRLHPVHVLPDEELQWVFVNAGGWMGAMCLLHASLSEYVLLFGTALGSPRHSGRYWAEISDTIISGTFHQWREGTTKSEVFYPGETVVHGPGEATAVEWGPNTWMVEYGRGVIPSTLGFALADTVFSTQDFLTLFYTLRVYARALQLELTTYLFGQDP
Chain of sigma 1 (σ-1) site (Q99720 whole entry): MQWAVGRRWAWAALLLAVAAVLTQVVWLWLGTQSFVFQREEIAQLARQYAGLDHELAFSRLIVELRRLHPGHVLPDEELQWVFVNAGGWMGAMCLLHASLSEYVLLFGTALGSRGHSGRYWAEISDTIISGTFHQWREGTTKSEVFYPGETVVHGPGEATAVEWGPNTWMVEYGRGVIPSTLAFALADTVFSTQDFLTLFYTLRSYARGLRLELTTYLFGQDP
Chain of sigma (σ-2) site (Q5BJF2 whole entry): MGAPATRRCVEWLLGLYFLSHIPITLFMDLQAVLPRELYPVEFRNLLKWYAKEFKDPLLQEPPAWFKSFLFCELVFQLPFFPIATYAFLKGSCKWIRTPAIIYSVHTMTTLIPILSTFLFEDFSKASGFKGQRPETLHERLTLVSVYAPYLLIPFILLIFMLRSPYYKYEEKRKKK

Compound | affinity for the sigma (σ-2) site (sigma (σ-2) site) | affinity for the sigma 1 (σ-1) site (sigma 1 (σ-1) site) | % Binding σ1 10^−7M (σ1-receptor) [%] | % Binding σ1 10^−8M (σ1-receptor) [%]
SKF 10047 | micromolar | nanomolar | – | –
COC(=O)[C@H](c1ccccc1)N1C[C@@H]2C=C(c3ccccc3)C(=O)[C@@H]2C1 [Example 4] | – | – | 32.3 | 24.8
CCOC(=O)[C@H](C)N1C[C@@H]2C=C(c3ccccc3)C(=O)[C@@H]2C1 [Example 12] | – | – | 32.4 | 16.7
COC(=O)[C@H](c1ccccc1)N1C[C@H]2C=C(c3ccccc3)C(=O)[C@H]2C1 [Example 3] | – | – | 31.3 | 28.0
CCOC(=O)[C@H](C)N1C[C@H]2C=C(c3ccccc3)C(=O)[C@H]2C1 [Example 11] | – | – | 33.2 | 25.6
CCCCC1=C[C@H]2CN([C@@H](C)C(=O)OCC)C[C@H]2C1=O [Example 14, (2S)-ethyl 2-((3aS,6aR)-5-butyl-4-oxo-1,3a,4,6a-tetrahydrocyclopenta[c]pyrrol-2(1H)-yl)propanoate] | – | – | 39.6 | 28.8
CCCCC1=C[C@@H]2CN([C@@H](C)C(=O)OCC)C[C@@H]2C1=O [Example 13, (2S)-ethyl2-((3aR,6aS)-5-butyloxo-1,3a,4,6a-tetrahydrocyclopenta[c]pyrrol-2(1H)-yl)propanoate] | – | – | 26.9 | 17.6
